Results from ChEMBL document CHEMBL1130911 (Bioorg Med Chem Lett, 1998).
Starred links: 1 amine or outer side, 2 acyl side, 3 side chain; linkers in the order of their positions; H or OH if unused. Non-standard residues stand in square brackets, D forms with d. Residues, ends and D or L forms follow the SMILES beside them. X1 = O=C([C@@]1(N[*:1])CCCC[C@@H]1O)[*:2]; X2 = O=C([C@@]1(N[*:1])CCCC[C@H]1O)[*:2]; X3 = O=C([C@@]1(N[*:1])CCC[C@@H]1O)[*:2]; X4 = O=C([C@]1(N[*:1])CCC[C@H]1O)[*:2]

How the values were obtained:
[1] = target: Kappa-type opioid receptor (Rattus norvegicus, UniProt P34975); experiment: biochemical; type: cell-based, CHO
Mu-type opioid receptor = Mu-type opioid receptor (Rattus norvegicus, UniProt P33535); experiment: biochemical; type: cell-based, CHO
[2] = target: T1, Delta-type opioid receptor (Rattus norvegicus, UniProt P33533); experiment: Inhibitory activity against forskolin-stimulated cAMP production in chinese hamster ovary cells expressing Opioid receptor delta 1; type: functional, cell-based, CHO
[3] = target: T1, Delta-type opioid receptor; experiment: biochemical; type: cell-based, CHO
Description: Binding affinity against rat Opioid receptor delta 1 expressed in CHO cells determined by competitive inhibition of 1 nM [3H]DPDPE.

Sequence of Kappa-type opioid receptor (P34975 whole entry): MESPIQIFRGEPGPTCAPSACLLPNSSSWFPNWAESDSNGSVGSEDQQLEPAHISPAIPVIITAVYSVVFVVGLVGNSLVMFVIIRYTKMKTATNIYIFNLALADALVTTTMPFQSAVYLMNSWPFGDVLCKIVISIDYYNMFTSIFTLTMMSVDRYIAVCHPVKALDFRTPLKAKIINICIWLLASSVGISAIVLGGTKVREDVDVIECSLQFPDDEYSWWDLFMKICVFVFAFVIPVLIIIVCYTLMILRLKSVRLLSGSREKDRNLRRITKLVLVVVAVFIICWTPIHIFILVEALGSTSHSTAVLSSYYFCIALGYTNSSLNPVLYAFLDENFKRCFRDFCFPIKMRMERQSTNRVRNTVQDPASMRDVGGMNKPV
T1 sequence (P33533 whole entry): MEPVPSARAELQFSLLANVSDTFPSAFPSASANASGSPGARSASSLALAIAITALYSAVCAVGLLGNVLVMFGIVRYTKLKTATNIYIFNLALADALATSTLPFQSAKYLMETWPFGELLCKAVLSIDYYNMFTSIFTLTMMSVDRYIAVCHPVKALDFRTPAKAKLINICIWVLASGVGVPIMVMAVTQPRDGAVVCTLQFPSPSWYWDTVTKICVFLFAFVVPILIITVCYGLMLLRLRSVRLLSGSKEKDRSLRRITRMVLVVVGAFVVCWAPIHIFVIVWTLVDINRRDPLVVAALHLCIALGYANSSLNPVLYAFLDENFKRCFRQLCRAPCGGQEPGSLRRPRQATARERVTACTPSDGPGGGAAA
Sequence of Mu-type opioid receptor (P33535 whole entry): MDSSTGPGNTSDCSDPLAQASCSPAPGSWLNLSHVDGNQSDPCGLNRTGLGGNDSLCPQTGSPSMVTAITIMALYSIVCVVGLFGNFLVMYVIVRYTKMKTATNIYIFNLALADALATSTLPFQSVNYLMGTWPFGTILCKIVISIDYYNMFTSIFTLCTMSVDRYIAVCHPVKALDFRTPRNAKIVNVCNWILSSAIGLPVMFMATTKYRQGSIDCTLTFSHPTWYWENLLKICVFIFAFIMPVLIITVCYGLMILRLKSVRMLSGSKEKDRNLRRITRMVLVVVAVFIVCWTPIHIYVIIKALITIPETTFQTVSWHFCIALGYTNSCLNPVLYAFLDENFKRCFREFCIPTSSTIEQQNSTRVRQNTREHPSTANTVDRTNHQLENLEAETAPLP

| SMILES | IC50 [1] [nM] | IC50 (Mu-type opioid receptor) [nM] | IC50 [2] [nM] | IC50 ([1]; cho) [nM] | IC50 (Mu-type opioid receptor; cho) [nM] | IC50 ([2]; cho) [nM] | IC50 ([3]; cho) [nM] | IC50 [3] [nM] |
| --- | --- | --- | --- | --- | --- | --- | --- | --- |
| CC(C)C[C@H](NC(=O)[C@H](Cc1ccccc1)NC(=O)CNC(=O)[C@]1(NC(=O)[C@@H](N)Cc2ccc(O)cc2)CCC[C@H]1O)C(=O)O (H-Y[X4]GFL-OH) | > 10000 | 320 | 10 |  |  |  |  |  |
| CC(C)C[C@@H](NC(=O)[C@@H](Cc1ccccc1)NC(=O)CNC(=O)[C@@](C)(CO)NC(=O)[C@H](N)Cc1ccc(O)cc1)C(=O)O |  |  |  | > 10000 | 6.3 | 0.071 | 0.4 |  |
| CC(C)C[C@H](NC(=O)[C@H](Cc1ccccc1)NC(=O)CNC(=O)[C@@]1(NC(=O)[C@@H](N)Cc2ccc(O)cc2)CCC[C@@H]1O)C(=O)O (H-Y[X3]GFL-OH) | > 10000 | 2.5 | 0.01 |  |  |  |  | 0.04 |
| CC(C)C[C@@H](NC(=O)[C@@H](Cc1ccccc1)NC(=O)CNC(=O)[C@](C)(CO)NC(=O)[C@H](N)Cc1ccc(O)cc1)C(=O)O |  |  |  | > 10000 | > 10000 | 5000 | 2500 |  |
| CC(C)C[C@H](NC(=O)[C@H](Cc1ccccc1)NC(=O)CNC(=O)C(C)(C)NC(=O)[C@@H](N)Cc1ccc(O)cc1)C(=O)O (single isomer, unassigned) | > 10000 | 158 | 140 |  |  |  |  | 50 |
| CC(C)C[C@H](NC(=O)[C@H](Cc1ccccc1)NC(=O)CNC(=O)[C@@]1(NC(=O)[C@@H](N)Cc2ccc(O)cc2)CCCC[C@H]1O)C(=O)O (H-Y[X2]GFL-OH) | > 10000 | 50 | 2 |  |  |  |  | 1 |
| CC(C)C[C@H](NC(=O)[C@H](Cc1ccccc1)NC(=O)CNC(=O)[C@@]1(NC(=O)[C@@H](N)Cc2ccc(O)cc2)CCCC[C@@H]1O)C(=O)O (H-Y[X1]GFL-OH) | 6310 | 0.25 | 0.005 |  |  |  |  | 0.01 |
